Results as given in patent US12252524B2, “GIP/GLP1 co-agonist compounds” (Eli Lilly and Company, priority 2018, dated 2025).
Numbered stars: 1 amine (or outer) side, 2 acyl side, 3 side chain; on linkers, the order of the positions; unused ones are H or OH. Square brackets hold non-standard residues; d marks the D form. Side chains are listed from the residue outwards. Peptide text beside a SMILES is read from it. * marks the point of attachment. C20 diacid = O=C(O)CCCCCCCCCCCCCCCCCCC(=O)*; C18 diacid = O=C(O)CCCCCCCCCCCCCCCCC(=O)*; γGlu = O=C(O)[C@H](CCC(=O)[*:2])N[*:1]; αMeL = CC(C)C[C@](C)(N)C(=O)O; AEEA = NCCOCCOCC(=O)O; Aib = CC(C)(N)C(=O)O

Tests used:
[1] = target: T1, gastric inhibitory peptide receptor (GIPR) (Homo sapiens, UniProt P48546); test: cAMP pharmacological functional assay in presence of casein, hGIPR; format: cell-based; details: HEK293 cells expressing hGIPR, 0.1% Casein, geometric mean; read-out: hGIPR cAMP Rel EC50 nM (SEM, n)
T1 sequence (P48546 22-466): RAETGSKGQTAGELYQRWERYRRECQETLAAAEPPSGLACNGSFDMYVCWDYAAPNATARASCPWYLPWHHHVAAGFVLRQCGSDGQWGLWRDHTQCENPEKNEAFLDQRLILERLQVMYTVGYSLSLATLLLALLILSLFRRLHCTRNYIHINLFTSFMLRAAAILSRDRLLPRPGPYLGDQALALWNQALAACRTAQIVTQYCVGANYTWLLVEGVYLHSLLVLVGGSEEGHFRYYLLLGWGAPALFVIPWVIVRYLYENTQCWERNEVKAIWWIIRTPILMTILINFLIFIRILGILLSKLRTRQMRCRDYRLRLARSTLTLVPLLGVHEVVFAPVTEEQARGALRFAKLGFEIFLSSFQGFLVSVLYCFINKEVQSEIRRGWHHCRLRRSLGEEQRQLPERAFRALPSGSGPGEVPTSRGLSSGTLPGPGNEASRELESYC

human Gcg receptor = target: T2, human Gcg receptor (Homo sapiens, UniProt P47871); test: [125I]-Glucagon binding (SPA), human Gcg receptor; details: read-out: hGLcgR Ki, nM (SEM, n)
T2 construct: expressed in transfected cells; crude membranes
T2 sequence (P47871 26-477): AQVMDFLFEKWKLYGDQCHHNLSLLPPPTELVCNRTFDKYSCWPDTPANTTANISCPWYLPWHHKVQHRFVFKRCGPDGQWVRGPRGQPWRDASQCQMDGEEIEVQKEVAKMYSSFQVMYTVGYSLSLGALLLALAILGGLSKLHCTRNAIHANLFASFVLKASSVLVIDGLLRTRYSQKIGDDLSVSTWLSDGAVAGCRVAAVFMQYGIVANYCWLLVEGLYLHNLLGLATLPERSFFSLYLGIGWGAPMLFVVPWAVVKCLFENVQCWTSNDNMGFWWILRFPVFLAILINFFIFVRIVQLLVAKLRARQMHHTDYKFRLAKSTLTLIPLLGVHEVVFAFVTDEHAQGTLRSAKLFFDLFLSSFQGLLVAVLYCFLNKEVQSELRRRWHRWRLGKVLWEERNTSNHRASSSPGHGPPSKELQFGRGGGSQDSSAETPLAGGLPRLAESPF
How it was run: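 Cell pellets were lysed in hypotonic Tris buffer, pH 7.5, homogenized, and spun at low then high speed to give crude membranes. Ki was derived from the fitted IC50.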

human GLP-1R [2] = target: T3, human GLP-1R (Homo sapiens, UniProt P43220); test: GLP-1R HEK293 cell membrane [35S]GTPγS binding assay; format: biochemical; set-up: expressed in transfected cells; host or cells: HEK293 cells expressing human GLP-1R; membranes; details: HEK293 cell membranes expressing human GLP-1R, [35S]GTPγS binding; read-out: hGLP1R GTPgS Rel EC50 nM (SEM, n)
T3 sequence (P43220 24-463): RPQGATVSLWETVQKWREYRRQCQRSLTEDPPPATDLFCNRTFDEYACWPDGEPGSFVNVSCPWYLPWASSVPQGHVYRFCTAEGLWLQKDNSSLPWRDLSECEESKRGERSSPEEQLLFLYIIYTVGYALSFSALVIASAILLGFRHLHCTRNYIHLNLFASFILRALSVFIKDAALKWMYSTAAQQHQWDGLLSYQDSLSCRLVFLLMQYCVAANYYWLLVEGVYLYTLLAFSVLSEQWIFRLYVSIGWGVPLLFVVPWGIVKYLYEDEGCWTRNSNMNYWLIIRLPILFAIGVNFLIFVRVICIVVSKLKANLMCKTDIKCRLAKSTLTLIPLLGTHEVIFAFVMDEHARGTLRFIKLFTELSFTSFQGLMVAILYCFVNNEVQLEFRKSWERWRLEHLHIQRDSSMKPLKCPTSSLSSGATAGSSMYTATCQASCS
Protocol: The GLP-1 receptor is a G-protein coupled receptor that increases GTP-bound Gas upon ligand induced receptor activation. The potency of peptides to stimulate-GLP-1R induced activation of Gac is determined using preparations of purified membranes from HEK293 cells expressing the human GLP-1R. […] The test peptides are solubilized in DMSO and diluted in reaction buffer containing 5 μg of membrane in 20 mM HEPES pH 7.4, 50 mM NaCl, 5 mM MgCl2, 40 μg/ml saponin, 0.1% BSA, and […] ^35S-labeled GTPTS for 30 minutes at room temperature. Reactions are terminated by addition of 0.2% Nonidet β-40 detergent containing rabbit anti-Gas polyclonal antibody and 0.5 mg of anti-rabbit polyvinyltoluene beads. Mixtures are developed for 30 minutes, centrifuged at 80×g for 10 minutes, and counted for 1 minute/well using a MicroBeta TriLux instrument. Peptide concentration-response curves are fit to a four-parameter logistic model to calculate potency as an EC50.

human GIP receptor = target: T4, human GIP receptor (Homo sapiens, UniProt P48546); test: [125I]-GIP binding (SPA), human GIP receptor; details: read-out: hGIPR Ki, nM (SEM, n)
T4 construct: expressed in transfected cells; crude membranes
T4 sequence (P48546 22-466): T1 sequence (P48546 22-466)

human GLP-1R [3] = target: T3, human GLP-1R; test: [125I]-GLP-1 binding (SPA), human GLP-1 receptor; set-up: expressed in transfected cells; crude membranes; details: read-out: hGLP1R Ki, (nM) (SEM, n)
How it was run: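 Ki values are geometric means with SEM over independent replicates on different days, derived from IC50s fitted by four-parameter nonlinear regression. The assay used crude cell membranes in HEPES buffer, pH 7.4, containing CaCl2, MgCl2, bacitracin and TWEEN-20.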

[4] = target: human GLP-1 receptor (GLP-1R) (Homo sapiens, UniProt P43220); test: cAMP pharmacological functional assay in presence of casein, hGLP-1R; format: cell-based; details: HEK293 cells expressing hGLP-1R, 0.1% Casein, geometric mean; read-out: hGLP1R cAMP Rel EC50 nM (SEM, n)
human GLP-1 receptor (GLP-1R), sequence (P43220 24-463): as above

EC50 [1] | Ki (human Gcg receptor) | EC50 (human GLP-1R [2]) | Ki (human GIP receptor) | Ki (human GLP-1R [3]) | EC50 [4] | Structure (SMILES)
0.0296 nM | > 855 nM | 0.561 nM | 0.0499 nM | 4.44 nM | 0.191 nM | CC[C@H](C)[C@H](NC(=O)[C@H](CC(C)C)NC(=O)[C@H](Cc1ccc(O)cc1)NC(=O)[C@H](CCC(=O)O)NC(=O)[C@@H](NC(=O)[C@H](Cc1ccccc1)NC(=O)[C@H](CCC(=O)O)NC(=O)C(C)(C)NC(=O)[C@H](CCC(N)=O)NC(=O)[C@H](C)NC(=O)[C@H](CCCCNC(=O)COCCOCCNC(=O)COCCOCCNC(=O)CC[C@H](NC(=O)CCCCCCCCCCCCCCCCC(=O)O)C(=O)O)NC(=O)[C@H](CCCCN)NC(=O)[C@H](CC(=O)O)NC(=O)[C@H](CC(C)C)NC(=O)[C@](C)(CC(C)C)NC(=O)[C@@H](NC(=O)[C@H](CO)NC(=O)[C@H](Cc1ccc(O)cc1)NC(=O)[C@H](CC(=O)O)NC(=O)[C@H](CO)NC(=O)[C@@H](NC(=O)[C@H](Cc1ccccc1)NC(=O)[C@@H](NC(=O)CNC(=O)[C@H](CCC(=O)O)NC(=O)C(C)(C)NC(=O)[C@@H](N)Cc1ccc(O)cc1)[C@@H](C)O)[C@@H](C)O)[C@@H](C)CC)[C@@H](C)CC)C(=O)N[C@@H](CCC(=O)O)C(=O)NCC(=O)NCC(=O)N1CCC[C@H]1C(=O)N[C@@H](CO)C(=O)N[C@@H](CO)C(=O)NCC(N)=O [Example 304] (H-Y[Aib]EGTFTSDYSI[αMeL]LDKK([AEEA-AEEA-γGlu-C18 diacid])AQ[Aib]EFIEYLIEGGPSSG-NH2)
0.0225 nM | 352 nM | 0.389 nM | 0.025 nM | 0.83 nM | 0.107 nM | CC[C@H](C)[C@H](NC(=O)[C@H](CC(C)C)NC(=O)[C@H](Cc1ccc(O)cc1)NC(=O)[C@H](CCC(=O)O)NC(=O)[C@@H](NC(=O)[C@H](Cc1ccccc1)NC(=O)[C@H](C)NC(=O)C(C)(C)NC(=O)[C@H](CCC(N)=O)NC(=O)[C@H](C)NC(=O)[C@H](CCCCNC(=O)COCCOCCNC(=O)COCCOCCNC(=O)CC[C@H](NC(=O)CCCCCCCCCCCCCCCCC(=O)O)C(=O)O)NC(=O)[C@H](CCCCN)NC(=O)[C@H](CC(=O)O)NC(=O)[C@H](CC(C)C)NC(=O)[C@](C)(CC(C)C)NC(=O)[C@@H](NC(=O)[C@H](CO)NC(=O)[C@H](Cc1ccc(O)cc1)NC(=O)[C@H](CC(=O)O)NC(=O)[C@H](CO)NC(=O)[C@@H](NC(=O)[C@H](Cc1ccccc1)NC(=O)[C@@H](NC(=O)CNC(=O)[C@H](CCC(=O)O)NC(=O)C(C)(C)NC(=O)[C@@H](N)Cc1ccc(O)cc1)[C@@H](C)O)[C@@H](C)O)[C@@H](C)CC)[C@@H](C)CC)C(=O)N[C@@H](C)C(=O)NCC(=O)NCC(=O)N1CCC[C@H]1C(=O)N[C@@H](CO)C(=O)N[C@@H](CO)C(=O)NCC(N)=O [Example 305] (H-Y[Aib]EGTFTSDYSI[αMeL]LDKK([AEEA-AEEA-γGlu-C18 diacid])AQ[Aib]AFIEYLIAGGPSSG-NH2)
0.0191 nM | > 1040 nM | 0.378 nM | 0.0349 nM | 2.86 nM | 0.0711 nM | CC[C@H](C)[C@H](NC(=O)[C@H](CC(C)C)NC(=O)[C@H](Cc1ccc(O)cc1)NC(=O)[C@H](CCC(=O)O)NC(=O)[C@@H](NC(=O)[C@H](Cc1ccccc1)NC(=O)[C@H](CCC(=O)O)NC(=O)C(C)(C)NC(=O)[C@H](CCC(N)=O)NC(=O)[C@H](C)NC(=O)[C@H](CCCCNC(=O)COCCOCCNC(=O)COCCOCCNC(=O)CC[C@H](NC(=O)CCCCCCCCCCCCCCCCC(=O)O)C(=O)O)NC(=O)[C@H](CCCCN)NC(=O)[C@H](CC(=O)O)NC(=O)[C@H](CC(C)C)NC(=O)[C@](C)(CC(C)C)NC(=O)[C@@H](NC(=O)[C@H](CO)NC(=O)[C@H](Cc1ccc(O)cc1)NC(=O)[C@H](CC(=O)O)NC(=O)[C@H](CO)NC(=O)[C@@H](NC(=O)[C@H](Cc1ccccc1)NC(=O)[C@@H](NC(=O)CNC(=O)[C@H](CCC(=O)O)NC(=O)C(C)(C)NC(=O)[C@@H](N)Cc1ccc(O)cc1)[C@@H](C)O)[C@@H](C)O)[C@@H](C)CC)[C@@H](C)CC)C(=O)N[C@@H](C)C(=O)NCC(=O)NCC(=O)N1CCC[C@H]1C(=O)N[C@@H](CO)C(=O)N[C@@H](CO)C(=O)NCC(N)=O [Example 306] (H-Y[Aib]EGTFTSDYSI[αMeL]LDKK([AEEA-AEEA-γGlu-C18 diacid])AQ[Aib]EFIEYLIAGGPSSG-NH2)
0.0948 nM | 253 nM | 0.536 nM | 0.0215 nM | 2.63 nM | 0.172 nM | CC[C@H](C)[C@H](NC(=O)[C@H](CC(C)C)NC(=O)[C@H](Cc1ccc(O)cc1)NC(=O)[C@H](CCC(=O)O)NC(=O)[C@@H](NC(=O)[C@H](Cc1ccccc1)NC(=O)[C@H](C)NC(=O)C(C)(C)NC(=O)[C@H](CCC(N)=O)NC(=O)[C@H](C)NC(=O)[C@H](CCCCNC(=O)COCCOCCNC(=O)COCCOCCNC(=O)CC[C@H](NC(=O)CCCCCCCCCCCCCCCCCCC(=O)O)C(=O)O)NC(=O)[C@H](CCCCN)NC(=O)[C@H](CC(=O)O)NC(=O)[C@H](CC(C)C)NC(=O)[C@H](CC(C)C)NC(=O)[C@@H](NC(=O)[C@H](CO)NC(=O)[C@H](Cc1ccc(O)cc1)NC(=O)[C@H](CC(=O)O)NC(=O)[C@H](CO)NC(=O)[C@@H](NC(=O)[C@H](Cc1ccccc1)NC(=O)[C@@H](NC(=O)CNC(=O)[C@H](CCC(=O)O)NC(=O)C(C)(C)NC(=O)[C@@H](N)Cc1ccc(O)cc1)[C@@H](C)O)[C@@H](C)O)[C@@H](C)CC)[C@@H](C)CC)C(=O)N[C@@H](C)C(=O)NCC(=O)NCC(=O)N1CCC[C@H]1C(=O)N[C@@H](CO)C(=O)N[C@@H](CO)C(=O)NCC(N)=O [Example 317] (H-Y[Aib]EGTFTSDYSILLDKK([AEEA-AEEA-γGlu-C20 diacid])AQ[Aib]AFIEYLIAGGPSSG-NH2; N-terminus assumed)
0.0547 nM | 730 nM | 0.415 nM | 0.0452 nM | 7.52 nM | 0.124 nM | CC[C@H](C)[C@H](NC(=O)[C@H](CC(C)C)NC(=O)[C@H](Cc1ccc(O)cc1)NC(=O)[C@H](CCC(=O)O)NC(=O)[C@@H](NC(=O)[C@H](Cc1ccccc1)NC(=O)[C@H](CCC(=O)O)NC(=O)C(C)(C)NC(=O)[C@H](CCC(N)=O)NC(=O)[C@H](C)NC(=O)[C@H](CCCCNC(=O)COCCOCCNC(=O)COCCOCCNC(=O)CC[C@H](NC(=O)CCCCCCCCCCCCCCCCCCC(=O)O)C(=O)O)NC(=O)[C@H](CCCCN)NC(=O)[C@H](CC(=O)O)NC(=O)[C@H](CC(C)C)NC(=O)[C@H](CC(C)C)NC(=O)[C@@H](NC(=O)[C@H](CO)NC(=O)[C@H](Cc1ccc(O)cc1)NC(=O)[C@H](CC(=O)O)NC(=O)[C@H](CO)NC(=O)[C@@H](NC(=O)[C@H](Cc1ccccc1)NC(=O)[C@@H](NC(=O)CNC(=O)[C@H](CCC(=O)O)NC(=O)C(C)(C)NC(=O)[C@@H](N)Cc1ccc(O)cc1)[C@@H](C)O)[C@@H](C)O)[C@@H](C)CC)[C@@H](C)CC)C(=O)N[C@@H](C)C(=O)NCC(=O)NCC(=O)N1CCC[C@H]1C(=O)N[C@@H](CO)C(=O)N[C@@H](CO)C(=O)NCC(N)=O [Example 318] (H-Y[Aib]EGTFTSDYSILLDKK([AEEA-AEEA-γGlu-C20 diacid])AQ[Aib]EFIEYLIAGGPSSG-NH2; N-terminus assumed)
